Data reported in article PMC4078514, “A Bombesin-Shepherdin Radioconjugate Designed for Combined Extra- and Intracellular Targeting” (Pharmaceuticals, 2014).

What was measured:
[1] = system: GRP-r overexpressing PC-3 cells; assay: Internalization assay in PC-3 cells; type: cell-based, human; conditions: 0.25 pmol, 1.5-2.0 kBq/well, within 30-60 min, percentage of applied dose normalized to 10^6 cells, n = 2-3 in triplicates, approximate
Experimental: Cell culturing of human prostate adenocarcinoma (PC-3) cells and in vitro assays (internalization, receptor saturation binding, and externalization) were performed as previously described and are thus described only in brief.
For the determination of cellular uptake, PC-3 cells were incubated with the radiolabeled peptides [^99mTc(CO)3(L)] (L = 14–16; 0.25 pmol; 1.5–2.0 kBq/well) for different time points to allow binding and internalization. Non-specific receptor binding and internalization was determined by incubating the cells with excess of natural bombesin(1–14) as a receptor blocking agent. At each time point, the supernatant was collected, representing the free radiopeptide fraction. The cell surface receptor bound fraction was obtained by treating the cells with an acidic saline glycine buffer (100 mM NaCl, 50 mM glycine, pH 2.8; 2 times for 5 min, on ice). The internalized fraction was determined by cell lysis with 1 M NaOH (10 min). Fractions of free, receptor-bound, and internalized radiopeptide were radiometrically measured in the gamma counter and calculated as percentage of applied dose normalized to 10^6 cells for all time points (n = 2–3 in triplicates, reported by means ± SD). […]

[2] = LogD determination, shake flask method (n-octanol/PBS); type: physicochemical; conditions: shake-flask n-octanol/PBS pH 7.4 (1:1, 1 mL, pre-saturated); 10 µL (1 µM) radiolabeled peptide; vortexed 1 min, centrifuged 3,000 rpm 10 min; gamma counter read-out; 2-3 experiments each in quintets, mean ± SD
Experimental: The hydrophilicity of the radiolabeled peptides 12–16 was evaluated by determination of their partition coefficient between n-octanol and phosphate buffered saline (PBS, pH 7.4) using the shake flask method. In brief, 10 µL (1 µM) of radiolabeled peptides 12–16 were added to a pre-saturated solution of n-octanol and PBS (1:1, 1 mL) and the tubes were vortexed (1 min) and centrifuged (3,000 rpm, 10 min). Aliquots of 100 µL of each phase were radiometrically measured in a gamma counter and the logD values were calculated by the logarithm of the ratio between the radioactive counts in the octanol fraction and the radioactive counts in the PBS fraction. The experiment was performed 2–3 times, each in quintets, and results are reported by mean values ± standard deviation (SD).

Hsp90 = conditions: reported high affinity; read-out: affinity towards Hsp90; cited from earlier work

| Compound | applied radioactivity internalized [1] | logD [2] | Kd (Hsp90) [µM] |
| --- | --- | --- | --- |
| CCCC[C@H](NC(=O)[C@H](CC(C)C)NC(=O)[C@H](Cc1c[nH]cn1)NC(=O)CNC(=O)[C@@H](NC(=O)[C@H](C)NC(=O)[C@H](Cc1c[nH]c2ccccc12)NC(=O)[C@H](CCC(N)=O)NC(=O)CCNC(=O)CCNC(=O)CCNC(=O)Cn1cc(CN[C@@H](CCCCNC(C)=O)C(=O)O)nn1)C(C)C)C(N)=O [[^99mTc(CO)3(16)], metal not drawn] | 25%–30% | -0.44 ± 0.07 |  |
| KHSSG [shepherdin(79–83)] |  |  | 0.08 |
